Results as given in ChEMBL document CHEMBL1201862, “PubChem BioAssay data set” (2004).
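Step 1: Grow cells in 96-well plates. Step 2: Expose to compound for 48 hours at 5 concentrations. Step 3: Interpolate endpoints linearly; if unreached, use highest concentration. GI50 is the concentration that inhibits growth by half.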 Active and inactive are the calls of the source. Cut-off read from the data, not from the text of the source: active = GI50 up to about 1.1 µM and inactive = higher.

What was measured:
Experiment in all cases: DTP human tumour cell line panel, 48 h
MDA-MB-231 = tested on: MDA-MB-231
DU-145 = tested on: DU-145
SR = tested on: SR
SN12C = tested on: SN12C
T47D = tested on: T47D
SNB-19 = tested on: SNB-19
SF-268 = tested on: SF-268
OVCAR-4 = tested on: OVCAR-4
ACHN = tested on: ACHN
MCF7 = tested on: MCF7
SNB-75 = tested on: SNB-75
786-0 = tested on: 786-0
UO-31 = tested on: UO-31
KM12 = tested on: KM12
TK-10 = tested on: TK-10
OVCAR-3 = tested on: OVCAR-3
CCRF-CEM = tested on: CCRF-CEM
K562 = tested on: K562
A549 = tested on: A549
SK-OV-3 = tested on: SK-OV-3
COLO 205 = tested on: COLO 205
PC-3 = tested on: PC-3
HCT-116 = tested on: HCT-116
SF-295 = tested on: SF-295
HCT-15 = tested on: HCT-15
SK-MEL-5 = tested on: SK-MEL-5
NCI-H226 = tested on: NCI-H226
HT-29 = tested on: HT-29
A498 = tested on: A498
CAKI-1 = tested on: CAKI-1
HOP-62 = tested on: HOP-62
M14 = tested on: M14
BT-549 = tested on: BT-549
MOLT-4 = tested on: MOLT-4
RXF 393 = tested on: RXF 393
OVCAR-5 = tested on: OVCAR-5
SK-MEL-28 = tested on: SK-MEL-28
UACC-62 = tested on: UACC-62
NCI-H460 = tested on: NCI-H460
Hs-578T = tested on: Hs-578T
HOP-92 = tested on: HOP-92
MDA-N = tested on: MDA-N
SW-620 = tested on: SW-620
MDA-MB-435 = tested on: MDA-MB-435
NCI/ADR-RES = tested on: NCI/ADR-RES
Malme-3M = tested on: Malme-3M
U-251 = tested on: U-251
OVCAR-8 = tested on: OVCAR-8
SK-MEL-2 = tested on: SK-MEL-2
HCC 2998 = tested on: HCC 2998
NCI-H23 = tested on: NCI-H23
RPMI-8226 = tested on: RPMI-8226
IGROV-1 = tested on: IGROV-1
UACC-257 = tested on: UACC-257
EKVX = tested on: EKVX
SF-539 = tested on: SF-539
LOX IMVI = tested on: LOX IMVI
HL-60 = tested on: HL-60

Structure (SMILES): CCOC(=O)Nc1cc(NC(/C=N/NC(C)=O)C(=O)OCC)c(OC)cc1NC(C)=O (centres undefined)
- GI50 (MDA-MB-231): > 100 µM (inactive)
- GI50 (DU-145): > 100 µM (inactive)
- GI50 (SR): > 100 µM (inactive)
- GI50 (SN12C): > 100 µM (inactive)
- GI50 (T47D): > 100 µM (inactive)
- GI50 (SNB-19): > 100 µM (inactive)
- GI50 (SF-268): > 100 µM (inactive)
- GI50 (OVCAR-4): > 100 µM (inactive)
- GI50 (ACHN): > 100 µM (inactive)
- GI50 (MCF7): > 100 µM (inactive)
- GI50 (SNB-75): > 100 µM (inactive)
- GI50 (786-0): > 100 µM (inactive)
- GI50 (UO-31): > 100 µM (inactive)
- GI50 (KM12): > 100 µM (inactive)
- GI50 (TK-10): > 100 µM (inactive)
- GI50 (OVCAR-3): > 100 µM (inactive)
- GI50 (CCRF-CEM): > 100 µM (inactive)
- GI50 (K562): > 100 µM (inactive)
- GI50 (A549): > 100 µM (inactive)
- GI50 (SK-OV-3): > 100 µM (inactive)
- GI50 (COLO 205): > 100 µM (inactive)
- GI50 (PC-3): > 100 µM (inactive)
- GI50 (HCT-116): > 100 µM (inactive)
- GI50 (SF-295): > 100 µM (inactive)
- GI50 (HCT-15): > 100 µM
- GI50 (SK-MEL-5): > 100 µM (inactive)
- GI50 (NCI-H226): > 100 µM (inactive)
- GI50 (HT-29): > 100 µM (inactive)
- GI50 (A498): > 100 µM (inactive)
- GI50 (CAKI-1): > 100 µM (inactive)
- GI50 (HOP-62): > 100 µM (inactive)
- GI50 (M14): > 100 µM (inactive)
- GI50 (BT-549): > 100 µM (inactive)
- GI50 (MOLT-4): > 100 µM (inactive)
- GI50 (RXF 393): > 100 µM (inactive)
- GI50 (OVCAR-5): > 100 µM (inactive)
- GI50 (SK-MEL-28): > 100 µM (inactive)
- GI50 (UACC-62): > 100 µM (inactive)
- GI50 (NCI-H460): > 100 µM (inactive)
- GI50 (Hs-578T): > 100 µM (inactive)
- GI50 (HOP-92): > 100 µM (inactive)
- GI50 (MDA-N): > 100 µM (inactive)
- GI50 (SW-620): > 100 µM (inactive)
- GI50 (MDA-MB-435): > 100 µM (inactive)
- GI50 (NCI/ADR-RES): > 100 µM (inactive)
- GI50 (Malme-3M): > 100 µM (inactive)
- GI50 (U-251): > 100 µM (inactive)
- GI50 (OVCAR-8): > 100 µM (inactive)
- GI50 (SK-MEL-2): > 100 µM (inactive)
- GI50 (HCC 2998): > 100 µM (inactive)
- GI50 (NCI-H23): > 100 µM (inactive)
- GI50 (RPMI-8226): > 100 µM (inactive)
- GI50 (IGROV-1): > 100 µM (inactive)
- GI50 (UACC-257): > 100 µM (inactive)
- GI50 (EKVX): > 100 µM (inactive)

Structure (SMILES): CN(C)c1ccc(/C=N\NC(=O)c2ccccc2Nc2ccccc2C(=O)N/N=C/c2ccc(N(C)C)cc2)cc1
- GI50 (MDA-MB-231): 23.3 µM (inactive)
- GI50 (DU-145): > 100 µM (inactive)
- GI50 (SR): > 100 µM (inactive)
- GI50 (SN12C): > 100 µM (inactive)
- GI50 (T47D): > 100 µM (inactive)
- GI50 (SNB-19): > 100 µM (inactive)
- GI50 (SF-268): > 100 µM (inactive)
- GI50 (OVCAR-4): > 100 µM (inactive)
- GI50 (ACHN): > 100 µM (inactive)
- GI50 (MCF7): > 100 µM (inactive)
- GI50 (SNB-75): > 100 µM (inactive)
- GI50 (786-0): > 100 µM (inactive)
- GI50 (UO-31): > 100 µM (inactive)
- GI50 (KM12): > 100 µM (inactive)
- GI50 (TK-10): > 100 µM (inactive)
- GI50 (OVCAR-3): > 100 µM (inactive)
- GI50 (CCRF-CEM): > 100 µM (inactive)
- GI50 (K562): > 100 µM (inactive)
- GI50 (A549): > 100 µM (inactive)
- GI50 (SK-OV-3): > 100 µM (inactive)
- GI50 (COLO 205): 97.5 µM (inactive)
- GI50 (PC-3): > 100 µM (inactive)
- GI50 (HCT-116): > 100 µM (inactive)
- GI50 (SF-295): > 100 µM (inactive)
- GI50 (HCT-15): > 100 µM
- GI50 (SK-MEL-5): 57 µM (inactive)
- GI50 (NCI-H226): > 100 µM (inactive)
- GI50 (HT-29): > 100 µM (inactive)
- GI50 (A498): > 100 µM (inactive)
- GI50 (CAKI-1): > 100 µM (inactive)
- GI50 (HOP-62): > 100 µM (inactive)
- GI50 (M14): 31.7 µM (inactive)
- GI50 (BT-549): > 100 µM (inactive)
- GI50 (MOLT-4): > 100 µM (inactive)
- GI50 (RXF 393): > 100 µM (inactive)
- GI50 (OVCAR-5): 28.5 µM (inactive)
- GI50 (SK-MEL-28): 90.4 µM (inactive)
- GI50 (UACC-62): > 100 µM (inactive)
- GI50 (NCI-H460): > 100 µM (inactive)
- GI50 (Hs-578T): > 100 µM (inactive)
- GI50 (HOP-92): > 100 µM (inactive)
- GI50 (MDA-N): > 100 µM (inactive)
- GI50 (SW-620): > 100 µM (inactive)
- GI50 (MDA-MB-435): > 100 µM (inactive)
- GI50 (NCI/ADR-RES): > 100 µM (inactive)
- GI50 (Malme-3M): 38.5 µM (inactive)
- GI50 (U-251): > 100 µM (inactive)
- GI50 (OVCAR-8): > 100 µM (inactive)
- GI50 (SK-MEL-2): > 100 µM (inactive)
- GI50 (HCC 2998): > 100 µM (inactive)
- GI50 (NCI-H23): > 100 µM (inactive)
- GI50 (RPMI-8226): > 100 µM (inactive)
- GI50 (IGROV-1): > 100 µM (inactive)
- GI50 (SF-539): 20 µM (inactive)
- GI50 (UACC-257): > 100 µM (inactive)
- GI50 (LOX IMVI): 92.9 µM (inactive)
- GI50 (EKVX): > 100 µM (inactive)

Structure (SMILES): COC(c1ccc(C(C)(C)C)cc1)(c1ccc(C(C)(C)C)cc1)c1cc(C(O)(c2cc(C(OC)(c3ccc(C(C)(C)C)cc3)c3ccc(C(C)(C)C)cc3)c(C)cc2C)c2cc(C(OC)(c3ccc(C(C)(C)C)cc3)c3ccc(C(C)(C)C)cc3)c(C)cc2C)c(C)cc1C
- GI50 (MDA-MB-231): > 100 µM (inactive)
- GI50 (DU-145): > 100 µM (inactive)
- GI50 (SR): > 100 µM (inactive)
- GI50 (T47D): > 100 µM (inactive)
- GI50 (SF-268): > 100 µM (inactive)
- GI50 (OVCAR-4): > 100 µM (inactive)
- GI50 (MCF7): > 100 µM (inactive)
- GI50 (SNB-75): 28.3 µM (inactive)
- GI50 (UO-31): > 100 µM (inactive)
- GI50 (TK-10): > 100 µM (inactive)
- GI50 (OVCAR-3): > 100 µM (inactive)
- GI50 (CCRF-CEM): > 100 µM (inactive)
- GI50 (K562): > 100 µM (inactive)
- GI50 (A549): > 100 µM (inactive)
- GI50 (SK-OV-3): > 100 µM (inactive)
- GI50 (COLO 205): > 100 µM (inactive)
- GI50 (PC-3): > 100 µM (inactive)
- GI50 (HCT-116): > 100 µM (inactive)
- GI50 (SF-295): > 100 µM (inactive)
- GI50 (HCT-15): > 100 µM
- GI50 (SK-MEL-5): > 100 µM (inactive)
- GI50 (NCI-H226): 92.5 µM (inactive)
- GI50 (HT-29): > 100 µM (inactive)
- GI50 (A498): > 100 µM (inactive)
- GI50 (CAKI-1): > 100 µM (inactive)
- GI50 (HOP-62): > 100 µM (inactive)
- GI50 (M14): > 100 µM (inactive)
- GI50 (BT-549): > 100 µM (inactive)
- GI50 (MOLT-4): > 100 µM (inactive)
- GI50 (RXF 393): > 100 µM (inactive)
- GI50 (OVCAR-5): > 100 µM (inactive)
- GI50 (SK-MEL-28): > 100 µM (inactive)
- GI50 (UACC-62): > 100 µM (inactive)
- GI50 (NCI-H460): > 100 µM (inactive)
- GI50 (Hs-578T): > 100 µM (inactive)
- GI50 (HOP-92): > 100 µM (inactive)
- GI50 (MDA-N): > 100 µM (inactive)
- GI50 (HL-60): > 100 µM (inactive)
- GI50 (SW-620): > 100 µM (inactive)
- GI50 (MDA-MB-435): > 100 µM (inactive)
- GI50 (NCI/ADR-RES): > 100 µM (inactive)
- GI50 (Malme-3M): > 100 µM (inactive)
- GI50 (U-251): > 100 µM (inactive)
- GI50 (OVCAR-8): > 100 µM (inactive)
- GI50 (SK-MEL-2): > 100 µM (inactive)
- GI50 (HCC 2998): > 100 µM (inactive)
- GI50 (NCI-H23): > 100 µM (inactive)
- GI50 (IGROV-1): > 100 µM (inactive)
- GI50 (SF-539): > 100 µM (inactive)
- GI50 (UACC-257): > 100 µM (inactive)
- GI50 (LOX IMVI): > 100 µM (inactive)
- GI50 (EKVX): > 100 µM (inactive)
